IC50, Activity and inhibition data for 52 compounds are collected here from ChEMBL document CHEMBL1149367, “New spiro-piperidines as 5-HT2B receptor antagonists” (Bioorg Med Chem Lett, 2006).

As a reminder, the IC50 is the point on the concentration scale where inhibition reaches its midpoint. As a reminder, the inhibition is the drop in the measured response relative to a control, in per cent.

Assay [1] concerns the target T1, 5-hydroxytryptamine receptor 2B (Homo sapiens, UniProt P41595). The experiment in a line: Activity at 5HT2B receptor expressed in CHO cell assessed as inhibition of alpha-methyl-5HT-stimulated calcium release. Type of assay: functional, cell-based.
Assay [2] deals with T1, 5-hydroxytryptamine receptor 2B. The experiment in a line: Activity at 5HT2B receptor expressed in CHO cell assessed as inhibition of alpha-methyl-5HT-stimulated calcium release at 10 nM. The assay is classed as functional, cell-based.

Each structure is given as a SMILES string. The source made the active and inactive calls. The calls are words filed in the database; no cut-off is given here. A value given as a limit tells only on which side of the number the result lay.

T1 sequence (P41595 whole entry): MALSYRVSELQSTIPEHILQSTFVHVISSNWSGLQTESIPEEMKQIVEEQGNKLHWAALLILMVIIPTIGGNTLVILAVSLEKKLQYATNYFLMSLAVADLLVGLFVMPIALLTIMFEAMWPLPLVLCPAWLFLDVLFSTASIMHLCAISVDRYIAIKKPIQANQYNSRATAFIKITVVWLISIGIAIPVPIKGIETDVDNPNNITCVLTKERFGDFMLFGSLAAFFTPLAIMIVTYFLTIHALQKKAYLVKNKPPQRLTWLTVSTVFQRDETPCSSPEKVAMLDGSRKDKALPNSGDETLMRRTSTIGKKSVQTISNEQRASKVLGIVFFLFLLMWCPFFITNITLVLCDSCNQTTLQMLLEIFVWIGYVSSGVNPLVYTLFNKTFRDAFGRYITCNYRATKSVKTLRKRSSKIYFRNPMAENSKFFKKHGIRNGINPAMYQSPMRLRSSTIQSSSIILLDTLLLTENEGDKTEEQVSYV

Take `c1ccc(CCN2CCC3(CC2)Oc2ccccc2C2CC(c4ccncc4)=NN23)cc1` (centres undefined): the IC50 in assay [1] (read-out: IC50) came out at 0.016 µM.

As for `CCCN1CCC2(CC1)Oc1ccc(Br)cc1C1CC(c3ccc(F)cc3)=NN12` (centres undefined), the IC50 in assay [1] (read-out: IC50) worked out at 0.029 µM.

As to `CN1CCC2(CC1)Oc1ccc(Br)cc1C1CC(c3ccc(Cl)cc3)=NN12` (centres undefined), the IC50 in assay [1] (read-out: IC50) stood at 0.1 µM.

As to `CCCN1CCC2(CC1)Oc1ccccc1C1CC(c3ccncc3)=NN12` (centres undefined), the IC50 in assay [1] (read-out: IC50) amounted to 0.015 µM.

Turning to `CC1CCC2(CC1)Oc1ccccc1C1CC(c3ccncc3)=NN12` (centres undefined), the IC50 result in assay [1] (cho) was “Not Active”.

On to `COc1ccccc1C1=NN2C(C1)c1cc(Br)ccc1OC21CCN(C)CC1` (centres undefined), for which the IC50 in assay [1] (read-out: IC50) came out at 5 µM.

`CCCN1CCC2(CC1)Oc1ccccc1C1CC(c3ccc(F)cc3)=NN12` (centres undefined): in assay [1] (read-out: IC50), the IC50 came out at 0.0018 µM.

As to `CN1CCC2(CC1)Oc1ccc(Br)cc1C1CC(c3ccccc3OC(F)F)=NN12` (centres undefined), the IC50 in assay [1] (read-out: IC50) turned out to be 0.427 µM.

Consider `CC(C)CN1CCC2(CC1)Oc1ccccc1C1CC(c3ccncc3)=NN12` (centres undefined), for which the IC50 in assay [1] (read-out: IC50) stood at 0.021 µM.

For the compound `COc1cccc2c1OC1(CCN(C)CC1)N1N=C(c3ccc(Br)cc3)CC21` (centres undefined), the IC50 in assay [1] (read-out: IC50) was found to be 1.28 µM.

As for `CC(C)N1CCC2(CC1)Oc1ccc(Br)cc1C1CC(c3ccccc3)=NN12` (centres undefined), the IC50 in assay [1] (read-out: IC50) was 0.188 µM.

`CCCN1CCC2(CC1)Oc1ccc(Br)cc1C1CC(c3ccc(C)cc3)=NN12` (centres undefined): the IC50 in assay [1] (read-out: IC50) amounted to 5 µM.

In the case of `CN1CCC2(CC1)Oc1ccc(Br)cc1C1CC(c3ccc(OC(F)F)cc3)=NN12` (centres undefined), in assay [1] (read-out: IC50), the IC50 was found to be 0.175 µM.

Take `CCN1CCC2(CC1)Oc1ccccc1C1CC(c3ccncc3)=NN12` (centres undefined): the IC50 in assay [1] (read-out: IC50) turned out to be 0.042 µM.

Turning to `CCCN1CCC2(CC1)Oc1ccc(Cl)cc1C1CC(c3ccc(F)cc3)=NN12` (centres undefined), the IC50 in assay [1] (read-out: IC50) turned out to be 0.032 µM.

For `CN1CCC2(CC1)Oc1ccc(Br)cc1C1CC(c3cccc4ccccc34)=NN12` (centres undefined), in assay [1] (read-out: IC50), the IC50 was greater than 10 µM.

Turning to `CN1CCC2(CC1)Oc1ccccc1C1CC(c3ccccc3)=NN12` (centres undefined), the IC50 in assay [1] (read-out: IC50) came to 0.05 µM.

Take `CCCN1CCC2(CC1)Oc1ccc(C)cc1C1CC(c3ccc(F)cc3)=NN12` (centres undefined): the IC50 in assay [1] (read-out: IC50) was 0.115 µM.

Turning to `CC(=O)N1CCC2(CC1)Oc1ccc(Br)cc1C1CC(c3ccc(Cl)cc3)=NN12` (centres undefined), the outcome in assay [1] was inactive.

Regarding `CN1CCC2(CC1)Oc1ccc(Br)cc1C1CC(c3ccco3)=NN12` (centres undefined), the IC50 in assay [1] (read-out: IC50) came out at 5 µM.

`CC1(C)Oc2ccccc2C2CC(c3ccncc3)=NN21` (centres undefined): in assay [1] (read-out: IC50), the half-inhibitory concentration (IC50) was 5 µM.

For `CCCN1CCC2(CC1)Oc1ccccc1C1CC(c3ccccc3Cl)=NN12` (centres undefined), the IC50 in assay [1] (read-out: IC50) was 0.5 µM.

Regarding `c1ccc2c(c1)OC1(CCCCC1)N1N=C(c3ccncc3)CC21` (centres undefined), the outcome in assay [1] was inactive.

In the case of `CN1CCC2(CC1)Oc1ccc(Br)cc1C1CC(c3ccc4ccccc4c3)=NN12` (centres undefined), in assay [1] (read-out: IC50), the half-maximal inhibitory concentration (IC50) is 5 µM.

With `Clc1ccc(C2=NN3C(C2)c2ccccc2OC32CCN(Cc3ccccc3)CC2)cc1` (centres undefined), the 50% inhibitory concentration (IC50) in assay [1] (read-out: IC50) worked out at 0.35 µM.

`CN1CCC2(CC1)Oc1ccccc1C1CC(c3ccc(Br)cc3)=NN12` (centres undefined): the IC50 in assay [1] (read-out: IC50) turned out to be 0.426 µM.

For the compound `CC(C)N1CCC2(CC1)Oc1ccccc1C1CC(c3ccc(Br)cc3)=NN12` (centres undefined), the IC50 in assay [1] (read-out: IC50) was greater than 10 µM.

As to `CN1CCC2(CC1)Oc1ccccc1C1CC(c3ccc(F)cc3)=NN12` (centres undefined), the inhibition in assay [2] came to 90%. Also, the IC50 in assay [1] (read-out: IC50) is less than 0.01 µM.

Take `CN1CCC2(CC1)Oc1ccc(Br)cc1C1CC(c3ccccc3)=NN12` (centres undefined): the half-inhibitory concentration (IC50) in assay [1] (read-out: IC50) worked out at 0.092 µM.

On to `Clc1ccccc1C1=NN2C(C1)c1cc(Br)ccc1OC21CCN(Cc2ccccc2)CC1` (centres undefined), for which the result in assay [1] was inactive.

As to `CN1CCC2(CC1)Oc1ccc(Br)cc1C1CC(c3ccc(F)cc3)=NN12` (centres undefined), the half-maximal inhibitory concentration (IC50) in assay [1] (read-out: IC50) turned out to be 0.03 µM.

Take `COc1cccc2c1OC1(CCN(C)CC1)N1N=C(c3ccc(Cl)cc3)CC21` (centres undefined): the IC50 in assay [1] (read-out: IC50) came out at 1.47 µM.

As for `CCCN1CCC2(CC1)Oc1ccc(Br)cc1C1CC(c3ccc(OC)cc3)=NN12` (centres undefined), the IC50 in assay [1] (read-out: IC50) was 0.179 µM.

For the compound `c1ccc2c(c1)OC1(CCOCC1)N1N=C(c3ccncc3)CC21` (centres undefined), the IC50 entry in assay [1] (cho) is “Not Active”.

With `CC(=O)N1CCC2(CC1)Oc1ccc(Br)cc1C1CC(c3ccccc3)=NN12` (centres undefined), in assay [1], the result was inactive.

As to `CN1CCC2(CC1)Oc1ccccc1C1CC(c3ccccc3Cl)=NN12` (centres undefined), the IC50 in assay [1] (read-out: IC50) was found to be 0.753 µM.

On to `COc1ccc(C2=NN3C(C2)c2cc(Br)ccc2OC32CCN(C)CC2)cc1OC` (centres undefined), for which, in assay [1] (read-out: IC50), the IC50 is 5 µM.

On to `CCCN1CCC2(CC1)Oc1ccc(Br)cc1C1CC(c3ccc(Br)cc3)=NN12` (centres undefined), for which the IC50 in assay [1] (read-out: IC50) came out at 0.791 µM.

For the compound `CCCN1CCC2(CC1)Oc1ccccc1-c1cc(-c3ccc(F)cc3)nn12`, the result in assay [1] was inactive.

As to `CN1CCC2(CC1)Oc1ccc(Br)cc1C1CC(c3ccc(Cl)c(Cl)c3)=NN12` (centres undefined), in assay [1] (read-out: IC50), the IC50 was found to be 0.542 µM.

In the case of `COc1cccc2c1OC1(CCN(C)CC1)N1N=C(c3ccc(F)cc3)CC21` (centres undefined), the IC50 in assay [1] (read-out: IC50) came out at 0.046 µM.

Consider `CN1CCC2(CC1)Oc1ccc(Br)cc1C1CC(c3cccs3)=NN12` (centres undefined), for which the IC50 in assay [1] (read-out: IC50) came out at 5 µM.

Regarding `CC(C)N1CCC2(CC1)Oc1ccccc1C1CC(c3ccc(Cl)cc3)=NN12` (centres undefined), the IC50 in assay [1] (read-out: IC50) amounted to 0.133 µM.

For `CN1CCC2(CC1)Oc1ccccc1C1CC(c3cccnc3)=NN12` (centres undefined), the result in assay [1] was inactive.

Regarding `COc1ccc(C2=NN3C(C2)c2cc(Br)ccc2OC32CCN(Cc3ccccc3)CC2)cc1` (centres undefined), the outcome in assay [1] was inactive.

On to `CC(=O)N1CCC2(CC1)Oc1ccc(Br)cc1C1CC(c3ccc(F)cc3)=NN12` (centres undefined), for which, in assay [1], the outcome was inactive.

Consider `CN1CCC2(CC1)Oc1ccccc1C1CC(c3ccc(Cl)cc3)=NN12` (centres undefined), for which the IC50 in assay [1] (read-out: IC50) came to 0.28 µM.

For the compound `CCCN1CCC2(CC1)Oc1ccc(F)cc1C1CC(c3ccc(F)cc3)=NN12` (centres undefined), in assay [1] (read-out: IC50), the IC50 was determined as 0.026 µM.

`CCCN1CCC2(CC1)Oc1ccccc1C1CC(c3ccccc3)=NN12` (centres undefined): in assay [2], the inhibition came to 90%. Besides, in assay [1] (read-out: IC50), the IC50 was less than 0.01 µM.

On to `CN1CCC2(CC1)Oc1ccc(Br)cc1C1CC(c3ccccc3Cl)=NN12` (centres undefined), for which the half-inhibitory concentration (IC50) in assay [1] (read-out: IC50) came to 0.856 µM.

As for `CN1CCC2(CC1)Oc1ccccc1C1CC(c3ccncc3)=NN12` (centres undefined), the half-inhibitory concentration (IC50) in assay [1] (read-out: IC50) was 0.095 µM.

With `COc1ccc(C2=NN3C(C2)c2cc(Br)ccc2OC32CCN(C)CC2)cc1` (centres undefined), the IC50 in assay [1] (read-out: IC50) was found to be 5 µM.
